Reference: patent publication US20120121745A1, “AGENTS FOR THE CONTROL OF […]” (MARRONE BIO INNOVATIONS, INC., priority 2010, published 2012)

Test system: quagga mussels
Experiment: Molluscicidal effects of compounds isolated from Pseudomonas broth (live mussel jar-test bioassay, procedures of US 20100266717)
Assay type: in vivo
Details: Conc 16 μg/ml
Protocol: The culture broth derived from the 10-L fermentation P. fluorescens in FM2-growth media is first centrifuge to separate the cells pellet and supernatant. The supernatant and the cell pellet were extracted separately using Amberlite XAD-7 resin (Asolkar et al., 2006) by shaking the cell suspension/supernatant with resin at 225 rpm for two hours at room temperature. The resin and cell mass are collected by filtration through cheesecloth and washed with DI water to remove salts. The resin, cell mass, and cheesecloth are then soaked for 2 h in acetone/methanol (50/50) after which the acetone/methanol is filtered and dried under vacuum using rotary evaporator to give two separate crude extract.(one for supernatant and other for cell pellets). The crude extracts were then fractionated separately by using reversed-phase C18 vacuum liquid chromatography (H2O/CH3OH; gradient […] to 0:100%) to give 7 fractions. These fractions are then concentrated to dryness using rotary evaporator and the resulting dry residues are screened for biological activity using both a live mussel jar-test bioassay with quagga mussels as well as a cell-based assay with a freshwater snail embryo cell line (Biomphalaria glabrata). The active fractions are then subjected to reversed phase HPLC (Spectra System P4000 (Thermo Scientific) to give pure compounds, which are then screened in above mentioned bioassays to locate/identify the active compounds. To confirm the identity of the compound, additional spectroscopic data such as LC/MS and NMR is recorded.
The potency of compounds isolated from Pseudomonas broth is tested using procedures described in the US Patent Application Pub. No. 20100266717.

## CCCCCC[C@@H](O)C/C=C\CCCCCCCC(=O)O [Ricinoleic acid, ricinoleic acid]
  % mortality 24 hr: 20 ± 0%
  % mortality 48 hr: 20 ± 0%
  % mortality 72 hr: 20 ± 0%
  % mortality 96 hr: 20 ± 0%

## CCCCCC/C=C/CCCCCCCC(=O)O [9-hexadecenoic acid]
  % mortality 24 hr: 20 ± 14.1%
  % mortality 48 hr: 25.5 ± 7.1%
  % mortality 72 hr: 30 ± 14.1%
  % mortality 96 hr: 30 ± 14.1%
